According to ChEMBL document CHEMBL4190400, “Identification of Potent Ebola Virus Entry Inhibitors with Suitable Properties for in Vivo Studies” (J Med Chem, 2018):
In brackets after ≈: the same amount, converted by molar mass.

Experiments:
Ebolavirus [1] = test: (§1) Antiviral activity against recombinant VSV pseudotyped Ebolavirus expressing M-GFP infected in African green monkey Vero E6 cells assessed as inhibition of viral infection pre-incubated for 2 hrs before infection and measured after 8 to 12 hrs in presence of 50% NHS by fluorescence microscopic method; format: functional, Vero C1008
Ebolavirus [2] = test: Antiviral activity against Ebolavirus isolate Makona infected in human HeLa cells assessed as inhibition of viral infection pretreated for 2 hrs before viral infection and measured after 48 hrs by EboV GP immunostaining based method; format: functional, cell-based; conditions: Orthoebolavirus
Ebolavirus [3] = test: Antiviral activity against Ebolavirus isolate Kikwit infected in human HeLa cells assessed as inhibition of viral infection pretreated for 2 hrs before viral infection and measured after 48 hrs by EboV GP immunostaining based method; format: functional, cell-based; conditions: Orthoebolavirus
Ebolavirus [4] = test: Antiviral activity against Ebola virus - Mayinga, Zaire, 1976 infected in human HeLa cells assessed as inhibition of viral infection pretreated for 2 hrs before viral infection and measured after 48 hrs by EboV GP immunostaining based method; format: functional, cell-based; conditions: Orthoebolavirus
in vivo = conditions: mouse, po, 25 mg/kg
[5] = Concentration in mouse plasma at 25 mg/kg, po administered via gavage cotreated with 20 mg/kg ritonavir; format: ADME, organism-based; conditions: in vivo
[6] = Half life in mouse liver microsomes at 1 uM after 60 mins in presence of NADPH and ritonavir by LC-MS/MS analysis; format: ADME, microsome; conditions: with ritonavir (concentration not stated)
[7] = Stability of the compound in mouse plasma at 10 uM assessed as compound remaining after 4 hrs by LC-MS/MS analysis; format: ADME, cell-free; conditions: read-out: Stability
[8] = Clearance in mouse at 25 mg/kg, po administered via gavage; format: ADME, organism-based; conditions: in vivo
Ebolavirus [9] = test: Antiviral activity against VSV pseudotyped Ebolavirus expressing M-GFP infected in African green monkey Vero E6 cells assessed as inhibition of viral infection pre-incubated for 2 hrs before infection and measured after 8 to 12 hrs by fluorescence microscopic method; format: functional, Vero C1008; conditions: Orthoebolavirus, Vero C1008
[10] = Clearance in mouse at 25 mg/kg, po administered via gavage cotreated with 20 mg/kg ritonavir; format: ADME, organism-based; conditions: in vivo
[11] = AUClast in mouse at 25 mg/kg, po administered via gavage cotreated with 20 mg/kg ritonavir; format: ADME, organism-based; parameters: dose 25 mg/kg, route oral, time 0 - last; conditions: in vivo
[12] = Cmax in mouse at 25 mg/kg, po administered via gavage cotreated with 20 mg/kg ritonavir; format: ADME, organism-based; parameters: dose 25 mg/kg, route oral; conditions: in vivo
[13] = Concentration in mouse plasma at 25 mg/kg, po administered via gavage after 12 hrs; format: ADME, organism-based
[14] = Cmax in mouse at 50 mg/kg, po administered via gavage cotreated with 50 mg/kg ritonavir; format: ADME, organism-based; parameters: dose 50 mg/kg, route oral; conditions: in vivo
Ebolavirus [15] = test: as §1, with “activity against VSV pseudotyped” for “activity against recombinant VSV pseudotyped”, “presence of 10% FBS and 50% NHS” for “presence of 50% NHS”; format: functional; conditions: Orthoebolavirus, Vero C1008
physchem = conditions: phosphate buffered saline, pH 7.4
[16] = Tmax in mouse at 50 mg/kg, po administered via gavage cotreated with 50 mg/kg ritonavir; format: ADME, organism-based; conditions: in vivo
[17] = AUClast in mouse at 50 mg/kg, po administered via gavage cotreated with 50 mg/kg ritonavir; format: ADME, organism-based; parameters: dose 50 mg/kg, route oral, time 0 - last; conditions: in vivo
[18] = Concentration in mouse plasma at 50 mg/kg, po administered via gavage cotreated with 50 mg/kg ritonavir; format: ADME, organism-based; conditions: in vivo
[19] = Clearance in mouse at 50 mg/kg, po administered via gavage cotreated with 50 mg/kg ritonavir; format: ADME, organism-based; conditions: in vivo
[20] = Half life in mouse at 50 mg/kg, po administered via gavage cotreated with 50 mg/kg ritonavir; format: ADME, organism-based; conditions: in vivo
in vitro = conditions: mouse, plasma
[21] = Half life in mouse liver microsomes at 1 uM after 60 mins in presence of NADPH by LC-MS/MS analysis; format: ADME, microsome
[22] = Half life in human liver microsomes at 1 uM after 60 mins in presence of NADPH by LC-MS/MS analysis; format: ADME, microsome

| Compound | IC50 (Ebolavirus [1]; Orthoebolavirus, Vero C1008) [nM] | EC50 (Ebolavirus [2]) [nM] | EC50 (Ebolavirus [3]) [nM] | EC50 (Ebolavirus [4]) [nM] | half-life at 1 µM [6] [h] | remaining at 4 h, 10 µM [7] [%] | Cmax [14] [µM] | IC50 (Ebolavirus [15]) [nM] | solubility kinetic (physchem) [µM] | Tmax [16] [h] | AUC(0-t) [17] [µM·h] | concentration [18] [µM] | CL/F [19] [mL/min/kg] | half-life [20] [h] | fraction unbound at 6 h (in vitro) | further results |
| --- | --- | --- | --- | --- | --- | --- | --- | --- | --- | --- | --- | --- | --- | --- | --- | --- |
| CS(=O)(=O)c1ccc(CNc2ccc(Cl)cc2CN2CCN(C(=O)CNC(=O)CC3CCC(F)(F)CC3)CC2)cc1 | 28 | 52 | 33 | 12 |  |  |  |  |  |  |  |  |  |  |  |  |
| [2H]C([2H])(c1cc(Cl)ccc1N)N1CCN(C(=O)CNC(=O)CC2CCC(F)(F)CC2)CC1 | 1200 |  |  |  | > 2 | 86 |  |  |  |  |  |  |  |  |  | half-life (in vivo): 2.3 h; concentration [5]: 1.7 µM; CL/F [8]: 49 mL/min/kg; IC50 (Ebolavirus [9]): 347 nM; CL/F [10]: 12.3 mL/min/kg; AUC(0-t) [11]: 76.8 µM·h; Cmax [12]: 12 µM; concentration at 12 h [13]: 0.2 µM |
| CS(=O)(=O)c1ccc(CNc2ccc(Cl)cc2CN2CCN(C(=O)CNC(=O)C3CC34CCC(F)(F)CC4)CC2)cc1 (racemic) | 40 | 17 | 35 | 9 |  |  |  |  |  |  |  |  |  |  |  |  |
| CS(=O)(=O)c1ccc(COc2ccc(Cl)cc2CN2CCN(C(=O)CNC(=O)C3CC34CCC(F)(F)CC4)CC2)cc1 (racemic) | 35 | 140 | 420 | 210 |  |  |  |  |  |  |  |  |  |  |  |  |
| [2H]C([2H])(c1cc(Cl)ccc1NCc1ccc(S(C)(=O)=O)cc1)N1CCN(C(=O)CNC(=O)C2CC23CCC(F)(F)CC3)CC1 (single isomer, unassigned; (-)) | 21 |  |  |  | 1.45 | 72 | 7.4 | 109 | 4 (≈ 2.5 µg/mL) | 7.3 | 108 | 5.7 | 12.5 | 1.7 | 0.002 | half-life at 1 µM [21]: 2 min; half-life at 1 µM [22]: 1 min |
| CS(=O)(=O)c1ccc(COc2ccc(Cl)cc2CN2CCN(C(=O)CNC(=O)C3CC34CCC(F)(F)CC4)CC2)cc1 (stereo in doubt; 3-22) |  |  |  |  | > 2 | 69 | 10.4 | 93 | 10 (≈ 6.24 µg/mL) | 4 | 116 | 4.7 | 11.9 | 3.2 | 0.024 | IC50 (Ebolavirus [1]; vero c1008): 19 nM |
